Source: patent publication US20240252488A1 (KOREA RESEARCH INSTITUTE OF CHEMICAL TECHNOLOGY, priority 2020, published 2024)

Tests used:
FADD−/− Jurkat cells = assay: Necroptosis inhibition assay, TNF-α-induced necroptosis (CellTiter-Glo 2.0); assay type: cell-based, human; details: TNF-α 15 ng/mL; for Necroptosis inhibition assay (Rescue %) 1 μM: compound 1 μM; for Necroptosis inhibition assay (Rescue %) 10 μM: compound 10 μM
Method in brief: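 Compound is added to cells at final concentrations of 0.1, 1 and 10 μM and left 30 minutes at room temperature. Necroptosis is induced with 15 ng/mL TNF-α, culture continues 20 to 24 hours at 37° C, and ATP-based luminescence reports viability.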

MLKL [1] = biological target: T1, MLKL (Homo sapiens, UniProt Q8NB16); assay: MLKL degradation assay in HepG2 cell line (western blot); assay type: cell-based; set-up: endogenous in cells; host or cells: HepG2 or HaCaT; details: cell line not given; for Degradation assay (Degradation %) 1 μM: compound 1 μM; for Degradation assay (Degradation %) 10 μM: compound 10 μM
T1 sequence (Q8NB16 1-471): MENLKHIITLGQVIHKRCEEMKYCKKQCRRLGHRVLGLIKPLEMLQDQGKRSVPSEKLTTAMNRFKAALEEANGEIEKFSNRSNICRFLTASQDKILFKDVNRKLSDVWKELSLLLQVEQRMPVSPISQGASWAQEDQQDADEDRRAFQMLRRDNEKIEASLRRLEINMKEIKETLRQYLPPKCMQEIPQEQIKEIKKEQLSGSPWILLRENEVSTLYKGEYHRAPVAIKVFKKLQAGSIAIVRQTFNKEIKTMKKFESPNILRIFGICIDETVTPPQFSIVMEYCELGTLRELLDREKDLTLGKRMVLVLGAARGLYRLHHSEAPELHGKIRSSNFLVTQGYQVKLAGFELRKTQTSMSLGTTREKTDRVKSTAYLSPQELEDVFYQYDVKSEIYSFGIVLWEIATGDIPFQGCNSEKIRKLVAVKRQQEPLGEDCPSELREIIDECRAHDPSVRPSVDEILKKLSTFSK
Method in brief: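 Chemiluminescent western blot signal reports remaining MLKL protein in HepG2 cells after 20-24 h treatment with compound at a final 1 or 10 μM. Equal protein (10-15 μg, BCA) is loaded per lane.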

MLKL [2] = biological target: T1, MLKL; assay: Measurement of binding affinity with MLKL receptor (competitive binding assay, Kd); set-up: made in house; host or cells: HEK 293 cell line (T7 phage in E. coli BL21-derived host is also described)
Method in brief: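 qPCR of MLKL eluted from liganded beads served as the read-out, from which Kd was derived. The protein was made in HEK 293 cells with a DNA tag, and test compounds competed with the bead-bound ligand at 0.9% final DMSO.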

| SMILES | Degradation assay (Degradation %) 1 μM (MLKL [1]) | Degradation assay (Degradation %) 10 μM (MLKL [1]) | Kd (MLKL [2]) | Necroptosis inhibition assay (Rescue %) 1 μM (FADD−/− Jurkat cells; FADD−/− Jurkat cells) | Necroptosis inhibition assay (Rescue %) 10 μM (FADD−/− Jurkat cells; FADD−/− Jurkat cells) | Necroptosis inhibition assay (Rescue %) 1 μM (FADD−/− Jurkat cells) | Necroptosis inhibition assay (Rescue %) 10 μM (FADD−/− Jurkat cells) |
| --- | --- | --- | --- | --- | --- | --- | --- |
| Nc1ncc(-c2cnn(C3CCN(CCCN4CCN(C(=O)c5ccc(C(=O)NC6CCC(=O)NC6=O)cc5)CC4)CC3)c2)nc1C(=O)O[C@@H](C(=O)Nc1ccc(F)cc1)c1ccccc1 (stereo partly drawn) [TDH-535, (R)-2-((4-fluorophenyl)amino)-2-oxo-1-phenylethyl 3-amino-6-(1-(1-(3-(4-(4-((2,6-dioxopiperidin-3-yl)carbamoyl)benzoyl)piperazin-1-yl)propyl)piperidin-4-yl)-1H-pyrazol-4-yl)pyrazine-2-carboxylate] | 57.69% | 44.41% | 0.96 nM | 20.08% | 23.78% |  |  |
| Nc1ncc(-c2cnn(C3CCN(CCCN4CC5CN(C(=O)CCc6ccc7c(c6)C(=O)N(C6CCC(=O)NC6=O)C7=O)CC5C4)CC3)c2)nc1C(=O)O[C@@H](C(=O)Nc1ccc(F)cc1)c1ccccc1 (stereo partly drawn) [TDH-480, (R)-2-((4-fluorophenyl)amino)-2-oxo-1-phenylethyl 3-amino-6-(1-(1-(3-(5-(3-(2-(2,6-dioxopiperidin-3-yl)-1,3-dioxoisoindolin-5-yl)propanoyl)hexahydropyrrolo[3,4-c]pyrrol-2(1H)-yl)propyl)piperidin-4-yl)-1H-pyrazol-4-yl)pyrazine-2-carboxylate] | 46.42% | 73% | 0.48 nM | 35.76% | 39.78% |  |  |
| Nc1ncc(-c2cnn(C3CCN(CCOCCOCCNC(=O)CNc4cccc5c4C(=O)N(C4CCC(=O)NC4=O)C5=O)CC3)c2)nc1C(=O)N[C@@H](C(=O)Nc1ccc(F)cc1)c1ccccc1 (stereo partly drawn) [TDH-217, 3-amino-6-(1-(1-(2-(2-(2-(2-((2-(2,6-dioxopiperidin-3-yl)-1,3-dioxoisoindolin-4-yl)amino)acetamido)ethoxy)ethoxy)ethyl)piperidin-4-yl)-1H-pyrazol-4-yl)-N-((R)-2-((4-fluorophenyl)amino)-2-oxo-1-phenylethyl)pyrazine-2-carboxamide] | 11.62% | 31.11% | 66 nM |  |  | 24.76% | 48.87% |
| COc1ccc(C(=O)N2CCC(C(=O)N3CCC(CCN4CCC(n5cc(-c6cnc(N)c(C(=O)O[C@@H](C(=O)Nc7ccc(F)cc7)c7ccccc7)n6)cn5)CC4)CC3)CC2)cc1N1CCC(=O)NC1=O [TDH-517, (R)-2-((4-fluorophenyl)amino)-2-oxo-1-phenylethyl 3-amino-6-(1-(1-(2-(1-(1-(3-(2,4-dioxotetrahydropyrimidin-1(2H)-yl)-4-methoxybenzoyl)piperidine-4-carbonyl)piperidin-4-yl)ethyl)piperidin-4-yl)-1H-pyrazol-4-yl)pyrazine-2-carboxylate] | 93.97% | 86.64% | 0.62 nM | 58.11% | 10.78% |  |  |
| Nc1ncc(-c2cnn(C3CCN(C(=O)CCC4CCN(C(=O)CCc5ccc6c(c5)C(=O)N(C5CCC(=O)NC5=O)C6=O)CC4)CC3)c2)nc1C(=O)O[C@@H](C(=O)Nc1ccc(F)cc1)c1ccccc1 (stereo partly drawn) [TDH-432, (R)-2-((4-fluorophenyl)amino)-2-oxo-1-phenylethyl 3-amino-6-(1-(1-(3-(1-(3-(2-(2,6-dioxopiperidin-3-yl)-1,3-dioxoisoindolin-5-yl)propanoyl)piperidin-4-yl)propanoyl)piperidin-4-yl)-1H-pyrazol-4-yl)pyrazine-2-carboxylate] | 89.17% | 73.05% | 0.9 nM | 12.47% | 0.07% |  |  |
| Nc1ncc(-c2cnn(C3CCN(C(=O)CC4CCN(C(=O)C5CN(c6ccc7c(c6)C(=O)N(C6CCC(=O)NC6=O)C7=O)C5)CC4)CC3)c2)nc1C(=O)O[C@@H](C(=O)Nc1ccc(F)cc1)c1ccccc1 (stereo partly drawn) [TDH-401, (R)-2-((4-fluorophenyl)amino)-2-oxo-1-phenylethyl 3-amino-6-(1-(1-(2-(1-(1-(2-(2,6-dioxopiperidin-3-yl)-1,3-dioxoisoindolin-5-yl)azetidine-3-carbonyl)piperidin-4-yl)acetyl)piperidin-4-yl)-1H-pyrazol-4-yl)pyrazine-2-carboxylate] | 74.27% | 72.99% | 6.8 nM | 33.10% | 28.25% |  |  |
| Nc1ncc(-c2cnn(C3CCN(CCOC4CCN(C(=O)C5CCN(c6ccc7c(c6)C(=O)N(C6CCC(=O)NC6=O)C7=O)CC5)CC4)CC3)c2)nc1C(=O)OC(C(=O)Nc1ccc(F)cc1)c1ccccc1 (stereo not drawn) [TDH-248, 2-((4-fluorophenyl)amino)-2-oxo-1-phenylethyl 3-amino-6-(1-(1-(2-((1-(1-(2-(2,6-dioxopiperidin-3-yl)-1,3-dioxoisoindolin-5-yl)piperidine-4-carbonyl)piperidin-4-yl)oxy)ethyl)piperidin-4-yl)-1H-pyrazol-4-yl)pyrazine-2-carboxylate] | 47.44% | 14.59% | 8.5 nM |  |  | 72.38% | 51.46% |
| Nc1ncc(-c2cnn(C3CCN(CC4CCN(C(=O)COc5ccc6c(c5)C(=O)N(C5CCC(=O)NC5=O)C6=O)CC4)CC3)c2)nc1C(=O)O[C@@H](C(=O)Nc1ccc(F)cc1)c1ccccc1 (stereo partly drawn) [TDH-171, (R)-2-((4-fluorophenyl)amino)-2-oxo-1-phenylethyl 3-amino-6-(1-(1-((1-(2-((2-(2,6-dioxopiperidin-3-yl)-1,3-dioxoisoindolin-5-yl)oxy)acetyl)piperidin-4-yl)methyl)piperidin-4-yl)-1H-pyrazol-4-yl)pyrazine-2-carboxylate] | 64.64% | 64.5% | 2.3 nM |  |  | 93.81% | 65.91% |

The next lines start with results.

| Degradation assay (Degradation %) 1 μM (MLKL [1]) | Degradation assay (Degradation %) 10 μM (MLKL [1]) | Kd (MLKL [2]) | SMILES | Necroptosis inhibition assay (Rescue %) 1 μM (FADD−/− Jurkat cells; FADD−/− Jurkat cells) | Necroptosis inhibition assay (Rescue %) 10 μM (FADD−/− Jurkat cells; FADD−/− Jurkat cells) | Necroptosis inhibition assay (Rescue %) 1 μM (FADD−/− Jurkat cells) | Necroptosis inhibition assay (Rescue %) 10 μM (FADD−/− Jurkat cells) |
| --- | --- | --- | --- | --- | --- | --- | --- |
| 56.55% | 50.66% | 13 nM | Nc1ncc(-c2cnn([C@@H]3CCN(CC4CCN(C(=O)CNc5cccc6c5C(=O)N(C5CCC(=O)NC5=O)C6=O)CC4)C3)c2)nc1C(=O)OC(C(=O)Nc1ccc(F)cc1)c1ccccc1 (stereo partly drawn) [TDH-285, 2-((4-fluorophenyl)amino)-2-oxo-1-phenylethyl 3-amino-6-(1-((3R)-1-((1-((2-(2,6-dioxopiperidin-3-yl)-1,3-dioxoisoindolin-4-yl)glycyl)piperidin-4-yl)methyl)pyrrolidin-3-yl)-1H-pyrazol-4-yl)pyrazine-2-carboxylate] |  |  | 36.72% | 40.43% |
| 59.51% | 61.42% | 1.9 nM | Nc1ncc(-c2cnn(C3CCN(C(=O)c4cn(C5CCN(C(=O)COc6ccc7c(c6)C(=O)N(C6CCC(=O)NC6=O)C7=O)CC5)cn4)CC3)c2)nc1C(=O)O[C@@H](C(=O)Nc1ccc(F)cc1)c1ccccc1 (stereo partly drawn) [TDH-355, (R)-2-((4-fluorophenyl)amino)-2-oxo-1-phenylethyl 3-amino-6-(1-(1-(1-(1-(2-((2-(2,6-dioxopiperidin-3-yl)-1,3-dioxoisoindolin-5-yl)oxy)acetyl)piperidin-4-yl)-1H-imidazole-4-carbonyl)piperidin-4-yl)-1H-pyrazol-4-yl)pyrazine-2-carboxylate] |  |  | 22.40% | 26.54% |
|  | 36.06% | 16 nM | Nc1ncc(-c2cn(C3CCN(CC4CCN(c5ccc6c(c5)C(=O)N(C5CCC(=O)NC5=O)C6=O)CC4)CC3)nn2)nc1C(=O)OC(C(=O)Nc1ccc(F)cc1)c1ccccc1 (stereo not drawn) [TDH-226, 2-((4-fluorophenyl)amino)-2-oxo-1-phenylethyl 3-amino-6-(1-(1-((1-(2-(2,6-dioxopiperidin-3-yl)-1,3-dioxoisoindolin-5-yl)piperidin-4-yl)methyl)piperidin-4-yl)-1H-1,2,3-triazol-4-yl)pyrazine-2-carboxylate] |  |  | 36.17% | 17.82% |
